Results: patent US10039753B2, “Imidazo[4,5-c]quinoline and imidazo[4,5-c][1,5]naphthyridine derivatives as LRRK2 inhibitors” (Pfizer Inc., priority 2015, dated 2018)
Structures can show the parent of a compound that is named as a salt.

Experiments:
[1] = target: T1, GST-tagged truncated LRRK2 (Homo sapiens, UniProt Q5S007); experiment: LRRK2 Assay, Format 2 (Lantha Screen), WT; format: biochemical; conditions: geometric mean of 2-4 determinations unless otherwise indicated (a: >=5; b: single determination)
T1 construct: GST-tagged truncated LRRK2 from Invitrogen (Cat # PV4874); GST; purchased Invitrogen PV4874
Protocol: (§1) LRRK2 kinase activity was measured using Lantha Screen technology from Invitrogen. GST-tagged truncated LRRK2 from Invitrogen (Cat # PV4874) was incubated with a fluorescein-labeled peptide substrate based upon ezrin/radixin/moesin (ERM), also known as LRRKtide (Invitrogen cat # PR8976A), in the presence of a dose response of compound. Upon completion, the assay was stopped and detected with a terbium labeled anti-phospho-ERM antibody (Invitrogen, cat # PR8975A). […] Using Echo acoustic dispensing, 60 nL of compound was transferred to a low volume Corning 384-well assay plate. 3 μL of a working solution of substrate (200 nM LRRKtide, […]) prepared in assay buffer (50 mM HEPES, pH 7.5, 3 mM MgCl2, with 2 mM DTT and 0.01% Brij35 added fresh) was added to the 60 nL compound assay plate. The kinase reaction was started with […] of a working solution of LRRK2 enzyme at a concentration of […]. The final reaction concentrations were 100 nM LRRKtide, […], […] LRRK2 enzyme and a compound dose response with a top dose of 3 mM. The reaction was allowed to progress at room temperature for 30 minutes and then stopped with the addition of […] of detection buffer (20 mM Tris pH 7.6, 0.01% NP-40, 6 mM EDTA with 2 nM terbium labeled anti-phospho-ERM). After an incubation of 1 hour at room temperature, the plate was read on an Envision with an excitation wavelength of 340 nm and a reading emission at both 520 nm and 495 nm. The ratio of the 520 nm and 495 nm emission was used to analyze the data. Inhibition of mutant G2019S LRRK2 (Invitrogen cat # PV4881) was measured in the exact same method. All final concentrations of substrate ATP and enzyme were the same.

[2] = target: mutant G2019S LRRK2 (Homo sapiens, UniProt Q5S007, G2019S); experiment: LRRK2 Assay, Format 2 (Lantha Screen), G2019S mutant; format: biochemical; design: purchased Invitrogen PV4881; conditions: geometric mean of 2-4 determinations unless otherwise indicated (a: >=5; b: single determination); read-out: LRRK2, Format 2 G2019S IC50
Protocol: as §1

Chain of mutant G2019S LRRK2 (Q5S007 970-2527 G2019S limits assumed): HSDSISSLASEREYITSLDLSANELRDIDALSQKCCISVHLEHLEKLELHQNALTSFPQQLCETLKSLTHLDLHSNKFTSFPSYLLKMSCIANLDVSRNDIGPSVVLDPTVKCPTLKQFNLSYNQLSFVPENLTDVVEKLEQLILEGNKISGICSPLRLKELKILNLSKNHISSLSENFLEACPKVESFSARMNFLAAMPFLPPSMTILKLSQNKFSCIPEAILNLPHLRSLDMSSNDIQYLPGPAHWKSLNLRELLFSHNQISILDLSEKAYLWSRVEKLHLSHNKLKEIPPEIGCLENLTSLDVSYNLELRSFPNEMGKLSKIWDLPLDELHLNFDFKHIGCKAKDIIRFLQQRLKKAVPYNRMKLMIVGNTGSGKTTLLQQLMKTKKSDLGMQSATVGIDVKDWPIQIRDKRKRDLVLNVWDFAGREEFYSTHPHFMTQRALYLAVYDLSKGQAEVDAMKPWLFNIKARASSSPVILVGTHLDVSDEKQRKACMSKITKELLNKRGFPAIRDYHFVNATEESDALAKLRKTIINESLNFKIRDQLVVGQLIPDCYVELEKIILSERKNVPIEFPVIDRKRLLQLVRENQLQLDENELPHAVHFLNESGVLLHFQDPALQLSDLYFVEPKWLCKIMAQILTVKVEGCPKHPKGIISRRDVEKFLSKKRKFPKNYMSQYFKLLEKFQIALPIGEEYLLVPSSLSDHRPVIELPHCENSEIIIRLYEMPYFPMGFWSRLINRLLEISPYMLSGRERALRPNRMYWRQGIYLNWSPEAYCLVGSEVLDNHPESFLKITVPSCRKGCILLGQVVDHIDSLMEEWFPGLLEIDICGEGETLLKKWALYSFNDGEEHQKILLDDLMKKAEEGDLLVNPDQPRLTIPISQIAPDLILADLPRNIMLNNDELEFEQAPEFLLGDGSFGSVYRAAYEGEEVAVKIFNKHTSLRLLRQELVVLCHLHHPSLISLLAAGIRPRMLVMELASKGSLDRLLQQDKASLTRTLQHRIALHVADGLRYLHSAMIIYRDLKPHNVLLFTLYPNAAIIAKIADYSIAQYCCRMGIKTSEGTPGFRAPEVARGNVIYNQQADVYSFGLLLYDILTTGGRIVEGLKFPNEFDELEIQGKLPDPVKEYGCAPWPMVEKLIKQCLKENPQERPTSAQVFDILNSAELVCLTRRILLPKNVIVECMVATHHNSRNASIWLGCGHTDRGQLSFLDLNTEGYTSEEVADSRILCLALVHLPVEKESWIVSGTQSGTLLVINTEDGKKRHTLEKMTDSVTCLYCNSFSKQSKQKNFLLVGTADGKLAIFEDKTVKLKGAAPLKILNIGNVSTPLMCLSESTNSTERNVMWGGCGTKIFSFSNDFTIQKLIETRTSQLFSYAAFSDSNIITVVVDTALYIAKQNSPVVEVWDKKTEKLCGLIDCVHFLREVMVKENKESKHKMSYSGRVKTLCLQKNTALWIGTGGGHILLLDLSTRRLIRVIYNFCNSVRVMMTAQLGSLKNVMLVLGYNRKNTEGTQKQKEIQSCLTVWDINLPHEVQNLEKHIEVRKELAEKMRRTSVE
T1 sequence (Q5S007 970-2527 limits assumed): as the sequence (Q5S007 970-2527 G2019S limits assumed) above, with S1050G counted along it

Row | SMILES | IC50 [1] | IC50 [2]
1 | C[C@@H]1C[C@H](n2c(Cn3cccn3)nc3cnc4ccc(C#N)cc4c32)CCO1 [Example 121, 1-[(2R,4R)-2-methyltetrahydro-2H-pyran-4-yl]-2-(1H-pyrazol-1-ylmethyl)-1H-imidazo[4,5-c]quinoline-8-carbonitrile, formate salt] | 6.19 nM | 5.61 nM
2 | CC1(C)CC(n2c(Cc3cc(C(F)(F)F)on3)nc3cnc4ccc(C#N)cc4c32)CCO1 (single isomer, unassigned; ent-2) [Example 177, 1-(2,2-dimethyltetrahydro-2H-pyran-4-yl)-2-{[5-(trifluoromethyl)-1,2-oxazol-3-yl]methyl}-1H-imidazo[4,5-c]quinoline-8-carbonitrile, ENT-2] | 1220 nM | 914 nM
3 | C[C@@H]1C[C@H](n2c(Cn3cc(C(F)(F)F)nn3)nc3cnc4ccc(Cl)cc4c32)CCO1 [Example 99, 8-Chloro-1-[(2R,4R)-2-methyltetrahydro-2H-pyran-4-yl]-2-{[4-(trifluoromethyl)-1H-1,2,3-triazol-1-yl]methyl}-1H-imidazo[4,5-c]quinoline, formate salt] | 5.84 nM | 5.42 nM
4 | Cc1nn2cc(Cc3nc4cnc5ccc(Cl)cc5c4n3[C@@H]3CCO[C@H](C)C3)nc2s1 [Example 162, 8-chloro-2-[(2-methylimidazo[2,1-b][1,3,4]thiadiazol-6-yl)methyl]-1-[(2R,4R)-2-methyltetrahydro-2H-pyran-4-yl]-1H-imidazo[4,5-c]quinoline, formate salt] | 3.86 nM | 3.83 nM
5 | C[C@@H]1C[C@H](n2c(Cc3cccnn3)nc3cnc4ccc(Cl)cc4c32)CCO1 [Example 142, 8-chloro-1-[(2R,4R)-2-methyltetrahydro-2H-pyran-4-yl]-2-(pyridazin-3-ylmethyl)-1H-imidazo[4,5-c]quinoline] | 7.11 nM | 5.63 nM
6 | Cc1nn2cc(Cc3nc4cnc5ccc(C#N)cc5c4n3[C@@H]3CC[C@H](F)C3)nc2s1 (single isomer, unassigned; ent-1) [Example 168, 1-(cis-3-fluorocyclopentyl)-2-[(2-methylimidazo[2,1-b][1,3,4]thiadiazol-6-yl)methyl]-1H-imidazo[4,5-c]quinoline-8-carbonitrile, ENT-1] | 7.33 nM | 11.5 nM
7 | Cc1cn(Cc2nc3cnc4ccc(Cl)cc4c3n2[C@H]2CC[C@@H](F)C2)nn1 (single isomer, unassigned) [Example C55, 8-chloro-1-(cis-3-fluorocyclopentyl)-2-[(4-methyl-1H-1,2,3-triazol-1-yl)methyl]-1H-imidazo[4,5-c]quinoline] | 18.2 nM | 22.7 nM
8 | C[C@@H]1C[C@H](n2c(Cn3ccc(C4CC4)n3)nc3cnc4ccc(Cl)cc4c32)CCO1 [Example 160, 8-chloro-2-[(3-cyclopropyl-1H-pyrazol-1-yl)methyl]-1-[(2R,4R)-2-methyltetrahydro-2H-pyran-4-yl]-1H-imidazo[4,5-c]quinoline, formate salt] | 6.23 nM | 6.36 nM
9 | Cc1cc(Cc2nc3cnc4ccc(Cl)cc4c3n2[C@@H]2CCO[C@H](CF)C2)no1 [Example 221, 8-chloro-1-[(2S,4R)-2-(fluoromethyl)tetrahydro-2H-pyran-4-yl]-2-[(5-methyl-1,2-oxazol-3-yl)methyl]-1H-imidazo[4,5-c]quinoline] | 3.19 nM | 2.89 nM
10 | COc1cnn(Cc2nc3cnc4ccc(F)cc4c3n2[C@@H]2CCO[C@H](C)C2)c1 [Example 179, 8-fluoro-2-[(4-methoxy-1H-pyrazol-1-yl)methyl]-1-[(2R,4R)-2-methyltetrahydro-2H-pyran-4-yl]-1H-imidazo[4,5-c]quinoline] | 14 nM | 12.6 nM
11 | Cc1cnn(Cc2nc3cnc4ccc(Cl)cc4c3n2[C@@H]2CCO[C@H](C)C2)c1 [Example 212, 8-chloro-2-[(4-methyl-1H-pyrazol-1-yl)methyl]-1-[(2R,4R)-2-methyltetrahydro-2H-pyran-4-yl]-1H-imidazo[4,5-c]quinoline] | 8.47 nM | 8.15 nM
12 | C[C@@H]1C[C@H](n2c(Cc3cc(C(F)(F)F)on3)nc3cnc4ccc(C#N)cc4c32)CCO1 [Example 119, 1-[(2R,4R)-2-methyltetrahydro-2H-pyran-4-yl]-2-{[5-(trifluoromethyl)-1,2-oxazol-3-yl]methyl}-1H-imidazo[4,5-c]quinoline-8-carbonitrile] | 7.53 nM | 8.21 nM
13 | C[C@@H]1C[C@H](n2c(Cc3cc(CF)on3)nc3cnc4ccc(Cl)cc4c32)CCO1 [Example 139, 8-chloro-2-{[5-(fluoromethyl)-1,2-oxazol-3-yl]methyl}-1-[(2R,4R)-2-methyltetrahydro-2H-pyran-4-yl]-1H-imidazo[4,5-c]quinoline] | 2.76 nM | 2.79 nM
14 | C[C@@H]1C[C@H](n2c(Cn3cc(C(F)(F)F)nn3)nc3cnc4ccc(C#N)cc4c32)CCO1 [Example 175, 1-[(2R,4R)-2-methyltetrahydro-2H-pyran-4-yl]-2-{[4-(trifluoromethyl)-1H-1,2,3-triazol-1-yl]methyl}-1H-imidazo[4,5-c]quinoline-8-carbonitrile] | 13.4 nM | 12.2 nM
15 | Cc1cnc(Cc2nc3cnc4ccc(C(F)(F)F)cc4c3n2[C@@H]2CCO[C@H](C)C2)cn1 [Example 141, 2-[(5-methylpyrazin-2-yl)methyl]-1-[(2R,4R)-2-methyltetrahydro-2H-pyran-4-yl]-8-(trifluoromethyl)-1H-imidazo[4,5-c]quinoline] | 2.07 nM | 1.38 nM
16 | Cc1cnc(Cc2nc3cnc4ccc(C#N)cc4c3n2[C@@H]2CCO[C@H](C)C2)s1 [Example 205, 1-[(2R,4R)-2-methyltetrahydro-2H-pyran-4-yl]-2-[(5-methyl-1,3-thiazol-2-yl)methyl]-1H-imidazo[4,5-c]quinoline-8-carbonitrile] | 6.52 nM | 6.09 nM
17 | C[C@@H]1C[C@H](n2c(Cc3cnns3)nc3cnc4ccc(Cl)cc4c32)CCO1 [Example 193, 8-chloro-1-[(2R,4R)-2-methyltetrahydro-2H-pyran-4-yl]-2-(1,2,3-thiadiazol-5-ylmethyl)-1H-imidazo[4,5-c]quinoline] | 37.3 nM | 32.6 nM
18 | Cc1cc(Cc2nc3cnc4ccc(C#N)cc4c3n2C2CCCCC2(F)F)no1 (single isomer, unassigned; ent-2) [Example C94, 1-(2,2-difluorocyclohexyl)-2-[(5-methyl-1,2-oxazol-3-yl)methyl]-1H-imidazo[4,5-c]quinoline-8-carbonitrile, ENT-2] | 21.4 nM | 30.5 nM
19 | C[C@@H]1C[C@H](n2c(Cc3cn4c(n3)COCC4)nc3cnc4ccc(Cl)cc4c32)CCO1 [Example 192, 8-chloro-2-(5,6-dihydro-8H-imidazo[2,1-c][1,4]oxazin-2-ylmethyl)-1-[(2R,4R)-2-methyltetrahydro-2H-pyran-4-yl]-1H-imidazo[4,5-c]quinoline] | 12.6 nM | –
20 | Cc1cc(Cc2nc3cnc4ccc(Cl)cc4c3n2CCF)no1 [Example 181, 8-chloro-1-(2-fluoroethyl)-2-[(5-methyl-1,2-oxazol-3-yl)methyl]-1H-imidazo[4,5-c]quinoline] | 99.5 nM | –
21 | Cc1cc(Cc2nc3cnc4ccc(C#N)cc4c3n2C2CCCC2(F)F)no1 (single isomer, unassigned; ent-1) [Example 143, 1-(2,2-difluorocyclopentyl)-2-[(5-methyl-1,2-oxazol-3-yl)methyl]-1H-imidazo[4,5-c]quinoline-8-carbonitrile, ENT-1] | 53.9 nM | –
22 | FCCn1c(Cc2cnccn2)nc2cnc3ccc(Cl)cc3c21 [Example 182, 8-chloro-1-(2-fluoroethyl)-2-(pyrazin-2-ylmethyl)-1H-imidazo[4,5-c]quinoline] | 67.4 nM | –
23 | CO[C@H]1C[C@H](n2c(Cn3cc(C)nn3)nc3cnc4ccc(Cl)cc4c32)C1 [Example 188, 8-chloro-1-[(1r,3r)-3-methoxycyclobutyl]-2-[(4-methyl-1H-1,2,3-triazol-1-yl)methyl]-1H-imidazo[4,5-c]quinoline] | 110 nM | –
24 | CCC(F)(F)Cn1c(Cc2noc(C)n2)nc2cnc3ccc(Cl)cc3c21 [Example 185, 8-chloro-1-(2,2-difluorobutyl)-2-[(5-methyl-1,2,4-oxadiazol-3-yl)methyl]-1H-imidazo[4,5-c]quinoline] | 73.2 nM | –
25 | C[C@@H]1C[C@H](n2c(Cc3nc(C4CC4)n(C)n3)nc3cnc4ccc(Cl)cc4c32)CCO1 [Example 191, 8-chloro-2-[(5-cyclopropyl-1-methyl-1H-1,2,4-triazol-3-yl)methyl]-1-[(2R,4R)-2-methyltetrahydro-2H-pyran-4-yl]-1H-imidazo[4,5-c]quinoline] | 73.5 nM | –
